Reference: ChEMBL document CHEMBL1153288, “1,3,4-Oxadiazole substituted naphthyridines as HIV-1 integrase inhibitors. Part 2: SAR of the C5 position” (Bioorg Med Chem Lett, 2009)

What was measured:
[1] = Inhibition of recombinant HIV integrase strand transfer activity; set-up: species or system Human immunodeficiency virus
[2] = system: Human immunodeficiency virus; test: Antiviral activity against G-pseudotyped HIV expressed in 293T cells with pGI3Luci; assay type: functional, organism-based; details: Human immunodeficiency virus 1, HEK-293T
[3] = Therapeutic index, CC50 for human 293T cells to EC50 for G-pseudotyped HIV; assay type: cell-based; details: read-out: Ratio CC50/EC50

| Compound | IC50 [1] [nM] | EC50 [2] [nM] | selectivity ratio [3] |
| --- | --- | --- | --- |
| Oc1c(-c2nnc(Cc3ccc(F)cc3)o2)nc(-n2cccn2)c2cccnc12 | 4 | 16 | 546 |
| O=C(O)c1cccc(-c2nc(-c3nnc(Cc4ccc(F)cc4)o3)c(O)c3ncccc23)c1 | 2 | 230 | > 60 |
| NC(=O)c1ccc(-c2nc(-c3nnc(Cc4ccc(F)cc4)o3)c(O)c3ncccc23)cc1 | 6 | 10 | 1220 |
| CNC(=O)c1ccc(-c2nc(-c3nnc(Cc4ccc(F)cc4)o3)c(O)c3ncccc23)cc1 | 4 | 12 | 780 |
| CN1CCN(c2nc(-c3nnc(Cc4ccc(F)cc4)o3)c(O)c3ncccc23)S1(=O)=O | 4 | 63 | 137 |
| O=C(O)c1ccc(-c2nc(-c3nnc(Cc4ccc(F)cc4)o3)c(O)c3ncccc23)cc1 | 2 | 58 | 241 |
| O=S1(=O)CCCCN1c1nc(-c2nnc(Cc3ccc(F)cc3)o2)c(O)c2ncccc12 | 2 | 13 | 198 |
| CS(=O)(=O)Nc1ccc(-c2nc(-c3nnc(Cc4ccc(F)cc4)o3)c(O)c3ncccc23)cc1 | 3 | 9 | 915 |
| CS(=O)(=O)c1ccc(-c2nc(-c3nnc(Cc4ccc(F)cc4)o3)c(O)c3ncccc23)cc1 | 9 | 8 | 301 |
| CNS(=O)(=O)c1ccccc1-c1nc(-c2nnc(Cc3ccc(F)cc3)o2)c(O)c2ncccc12 | 4 | 22 | 173 |
| O=C1NCCCN1c1nc(-c2nnc(Cc3ccc(F)cc3)o2)c(O)c2ncccc12 | 11 | 56 | > 250 |
| Oc1c(-c2nnc(Cc3ccc(F)cc3)o2)nc(-c2ccncc2)c2cccnc12 | 8 | 35 | 200 |
| CS(=O)(=O)Nc1cccc(-c2nc(-c3nnc(Cc4ccc(F)cc4)o3)c(O)c3ncccc23)c1 | 8 | 14 | 435 |
| O=S1(=O)CCCN1c1nc(-c2nnc(Cc3ccc(F)cc3)o2)c(O)c2ncccc12 | 8 | 110 | > 129 |
| CC(C)NS(=O)(=O)c1ccc(-c2nc(-c3nnc(Cc4ccc(F)cc4)o3)c(O)c3ncccc23)cc1 | 4 | 15 | 118 |
| CC(=O)Nc1ccc(-c2nc(-c3nnc(Cc4ccc(F)cc4)o3)c(O)c3ncccc23)cc1 | 4 | 6 | 591 |
| COCCNC(=O)c1nc(-c2nnc(Cc3ccc(F)cc3)o2)c(O)c2ncccc12 | 190 | – | 139 |
| O=C1CN(c2nc(-c3nnc(Cc4ccc(F)cc4)o3)c(O)c3ncccc23)CCN1 | 7 | 17 | 844 |
| O=C1CN(C(=O)c2nc(-c3nnc(Cc4ccc(F)cc4)o3)c(O)c3ncccc23)CCN1 | 74 | > 14000 | – |
| CN1CCCN(c2nc(-c3nnc(Cc4ccc(F)cc4)o3)c(O)c3ncccc23)S1(=O)=O | 6 | 31 | 294 |
| CN(C)S(=O)(=O)c1ccccc1-c1nc(-c2nnc(Cc3ccc(F)cc3)o2)c(O)c2ncccc12 | 4 | 29 | 67 |
| N#Cc1nc(-c2nnc(Cc3ccc(F)cc3)o2)c(O)c2ncccc12 | 240 | > 35000 | – |
| CC(C)NC(=O)c1cccc(-c2nc(-c3nnc(Cc4ccc(F)cc4)o3)c(O)c3ncccc23)c1 | 10 | 28 | 182 |
| CS(=O)(=O)c1cccc(-c2nc(-c3nnc(Cc4ccc(F)cc4)o3)c(O)c3ncccc23)c1 | 6 | 13 | 234 |
| CC(C)NC(=O)c1ccc(-c2nc(-c3nnc(Cc4ccc(F)cc4)o3)c(O)c3ncccc23)cc1 | 4 | 13 | 95 |
